Experimental data from paper PMC10707221, “A Novel Lipase from Streptomyces exfoliatus DSMZ 41693 for Biotechnological Applications” (International Journal of Molecular Sciences, 2023).

Tested on: T1, SeLipC
T1 construct: gene lipC; Full gene with native signal peptide (33 aa) expressed in Rhodococcus sp; T104 (pENV19), secreted; purified on phenyl sepharose; The printed nt borders (870 nt) give about 289 codons, not 33 + 259
Experiment: colorimetric p-nitrophenol release at […] nm, nonlinear hyperbolic fit
Format: biochemical, Streptomyces exfoliatus
Settings: 50 mM Tris/HCl pH 8.0, 37 °C; pNPP 10-800 µM; standard assay with isopropanol, gum arabic and sodium deoxycholate

In the case of `CCCCCCCCCCCCCCCC(=O)Oc1ccc([N+](=O)[O-])cc1` [pNPP, p-nitrophenyl palmitate], the Km is reported as 49.6 ± 11.2 µM.
